Format in all cases: physicochemical
Data set [1] in a line: Thermal analysis (DSC, TGA, melting point) - thermal stability. Conditions: solid phase. How it is done:
Differential scanning calorimetry was performed using a TA Instruments differential scanning calorimeter 2920. The sample was placed into an aluminum DSC pan, and the weight accurately recorded. The pan was covered with a lid and then crimped. The sample cell was equilibrated at ambient temperature and heated under a nitrogen purge at a rate of 10° C./min, up to a final temperature of 350° C. Indium metal was used as the calibration standard. Reported temperatures are at the transition maxima.
Thermogravimetric analyses were performed using a TA Instruments 2950 thermogravimetric analyzer. Each sample was placed in an aluminum sample pan and inserted into the TG furnace. The furnace was first equilibrated at ambient temperature, then heated under nitrogen at a rate of 10° C./min, up to a final temperature of 350° C. Nickel and Alumel™ were used as the calibration standards.
Hot stage microscopy was performed using a Linkam hot stage mounted on a Leica DM LP microscope. Samples were observed using a 20× objective with a lambda plate with crossed polarizers. Samples were sandwiched between two coverslips and visually observed as the stage was heated. Images were captured using a SPOT Insight™ color digital camera with SPOT Software v. 3.5.8. The hot stage was calibrated using sulfapyridine and vanillin USP melting point standards.

Data set [2] can be described thus: Solubility estimates in test solvents (aliquot addition, visual inspection). The conditions noted are these: room temperature, approximate. Here is the method: A weighed sample of Compound I was treated with aliquots of the test solvent at room temperature. The mixture was sonicated between aliquot additions to facilitate dissolution. Complete dissolution of the test material was determined by visual inspection. Solubilities were estimated from these experiments based on the total solvent used to provide complete dissolution. The actual solubility may be greater than those calculated because of the use of solvent aliquots that were too large or due to a slow rate of dissolution. […] If complete dissolution was achieved as a result of only one aliquot addition, the solubility is expressed as “greater than.”

Data set [3] in a line: Moisture sorption/desorption analysis (VTI SGA-100). Conditions: for moisture sorption behaviour in words: moisture sorption/desorption analysis; for solid form of the sample after moisture sorption/desorption (XRPD): post moisture sorption/desorption sample. Here is the method:
Moisture sorption/desorption data were collected on a VTI SGA-100 Vapor Sorption Analyzer. Sorption and desorption data were collected over a range of 5% to 95% relative humidity (RH) at 10% RH intervals under a nitrogen purge. Samples were not dried prior to analysis. Equilibrium criteria used for analysis were less than 0.0100% weight change in 5 minutes, with a maximum equilibration time of 3 hours if the weight criterion was not met. Data were not corrected for the initial moisture content of the samples. NaCl and PVP were used as calibration standards.

A short description of data set [4]: Stress studies (relative humidity / temperature), solid form by XRPD. The conditions noted are these: for Result (solid form by XRPD after stress): glassy material. How it is done:
Vapor Stress (VS) Experiments: Form A was dispensed into a small vial, which was placed, uncapped, in a larger vial containing a diffusing solvent. The larger vial was sealed and stored at ambient temperature. Samples were also stressed in ovens at elevated temperatures and under different relative humidity conditions.
X-ray powder diffraction analyses were performed using a Shimadzu XRD-6000 X-ray powder diffractometer using Cu Kα radiation. The instrument is equipped with a long fine focus X-ray tube. The tube voltage and amperage were set to 40 kV and 40 mA, respectively. The divergence and scattering slits were set at 1° and the receiving slit was set at 0.15 mm. Diffracted radiation was detected by a NaI scintillation detector. A θ-2θ continuous scan at 3°/min (0.4 sec/0.02° step) from 2.5 to 40 °2θ was used. A silicon standard was analyzed to check the instrument alignment. Data were collected and analyzed using XRD-6000 v. 4.1. Samples were prepared for analysis by placing them in an aluminum holder with silicon insert.

Consider six molecules from patent US8324383B2, “Methods of making polymorphs of benzoate salt of 2-[[6-[(3R)-3-amino-1-piperidinyl]-3,4-dihydro-3-methyl-2,4-dioxo-1(2H)-pyrimidinyl]methyl]-benzonitrile” (Takeda Pharmaceutical Company Limited, priority 2006, dated 2012).

“Also recorded” adds a separate entry of the source. Where a name gives a salt, the structure may show the parent alone. Read-outs that look alike come from different tables or passages of the source.

Broadly, the solubility is the concentration that dissolves in the medium under given conditions.

With `Cn1c(=O)cc(N2CCC[C@@H](N)C2)n(Cc2ccccc2C#N)c1=O` [Form A, benzoate salt of 2-[[6-[(3R)-3-amino-1-piperidinyl]-3,4-dihydro-3-methyl-2,4-dioxo-1(2H)-pyrimidinyl]methyl]-benzonitrile], in data set [1], the “thermally stable (temperature)” value is “above 172 °C”. Further, the solubility is less than 3000 µg/mL in data set [2] (ethanol, organic solvent or mixture, thermodynamic from solid, solvent EtOH, read-out: Solubility); 13000 µg/mL in data set [2] (methanol, organic solvent or mixture, thermodynamic from solid, solvent MeOH, read-out: Solubility); less than 1000 µg/mL in data set [2] (organic solvent or mixture, thermodynamic from solid, solvent CAN, read-out: Solubility); less than 3000 µg/mL in data set [2] (organic solvent or mixture, thermodynamic from solid, solvent CH2Cl2, read-out: Solubility); 6000 µg/mL in data set [2] (organic solvent or mixture, thermodynamic from solid, solvent DMF, read-out: Solubility); less than 3000 µg/mL in data set [2] (organic solvent or mixture, thermodynamic from solid, solvent EtOAc, read-out: Solubility). In addition, the solubility was less than 1000 µg/mL in data set [2] (organic solvent or mixture, thermodynamic from solid, solvent IPA, read-out: Solubility); 3000 µg/mL in data set [2] (organic solvent or mixture, thermodynamic from solid, solvent MEK, read-out: Solubility); less than 3000 µg/mL in data set [2] (organic solvent or mixture, thermodynamic from solid, solvent MIBK, read-out: Solubility); less than 1000 µg/mL in data set [2] (organic solvent or mixture, thermodynamic from solid, solvent THF, read-out: Solubility); less than 3000 µg/mL in data set [2] (organic solvent or mixture, thermodynamic from solid, solvent acetone, read-out: Solubility); less than 1000 µg/mL in data set [2] (organic solvent or mixture, thermodynamic from solid, solvent dioxane, read-out: Solubility). Further, the “solubility” value in data set [2] (solvent CH2Cl2, listed as Compound I Form A) is less than 3000 µg/mL; in data set [2] (solvent EtOAc, listed as Compound I Form A) it was less than 3000 µg/mL; in data set [2] (solvent EtOH, listed as Compound I Form A), less than 3000 µg/mL; in data set [2] (solvent MIBK, listed as Compound I Form A), less than 3000 µg/mL; in data set [2] (solvent acetone, listed as Compound I Form A), less than 3000 µg/mL; in data set [2] (thermodynamic from solid, solvent water, read-out: Solubility) it was 8000 µg/mL. For the same molecule, the “Weight chg (%)” value is recorded as 0.002% in data set [3] (RH 5.18%, 25.20 °C, 14.1 min); −0.004% in data set [3] (desorption, RH 4.82%, 25.20 °C, 163.7 min); 0.032% in data set [3] (desorption, RH 14.97%, 25.21 °C, 153.7 min); 0.035% in data set [3] (desorption, RH 24.96%, 25.22 °C, 146.7 min); 0.008% in data set [3] (desorption, RH 34.97%, 25.21 °C, 139.7 min); 0.012% in data set [3] (desorption, RH 45.01%, 25.22 °C, 131.7 min). Further, the “Weight chg (%)” value in data set [3] (desorption, RH 55.13%, 25.21 °C, 123.7 min) is listed as 0.014%; in data set [3] (desorption, RH 65.04%, 25.21 °C, 114.7 min), 0.016%; in data set [3] (desorption, RH 75.06%, 25.21 °C, 105.7 min), 0.017%; in data set [3] (desorption, RH 85.20%, 25.21 °C, 97.0 min), 0.019%; in data set [3] (sorption, RH 14.96%, 25.22 °C, 21.1 min) it was 0.001%; in data set [3] (sorption, RH 24.97%, 25.20 °C, 28.2 min) it was 0.001%. Besides, the “Weight chg (%)” value in data set [3] (sorption, RH 35.05%, 25.20 °C, 35.2 min) was found to be 0.002%; in data set [3] (sorption, RH 44.89%, 25.20 °C, 42.2 min) it was 0.004%; in data set [3] (sorption, RH 54.85%, 25.19 °C, 51.2 min), 0.035%; in data set [3] (sorption, RH 64.93%, 25.21 °C, 60.2 min), 0.039%; in data set [3] (sorption, RH 74.86%, 25.20 °C, 69.2 min) it was 0.041%; in data set [3] (sorption, RH 84.87%, 25.21 °C, 78.2 min), 0.045%. Besides, the “Weight chg (%)” value in data set [3] (sorption, RH 94.56%, 25.21 °C, 87.2 min) was determined as 0.049%; in data set [3] (start, RH 9.14%, 25.20 °C, 0.1 min) it was 0.000%. Further, the weight loss result in data set [3] (between 9% and 95% RH) was “about 0.05%”. Moreover, the initial weight gain entry in data set [3] (from ambient conditions to 55% RH) is listed as “approximately 0.035%”. In data set [3], the “moisture sorption behaviour in words” value was “variable hydrate”. Also, the “solid form of the sample after moisture sorption/desorption (XRPD)” value in data set [3] is recorded as “form A”. The “phase change upon RH stress (XRPD)” value in data set [4] (various RH conditions at room temperature, several weeks) is “none of these samples had undergone a phase change”.
For the molecule `Cn1c(=O)cc(N2CCC[C@@H](N)C2)n(Cc2ccccc2C#N)c1=O.O=C(O)c1ccccc1` [Compound 1966-27-02], in data set [4] (stress 79% RH/60° C., 3 hrs), the “Result (solid form by XRPD after stress)” value is “form A”.
Regarding `Cn1c(=O)cc(N2CCC[C@@H](N)C2)n(Cc2ccccc2C#N)c1=O` [amorphous Form 1, benzoate salt of 2-[[6-[(3R)-3-amino-1-piperidinyl]-3,4-dihydro-3-methyl-2,4-dioxo-1(2H)-pyrimidinyl]methyl]-benzonitrile], the “Weight chg (%)” value in data set [3] (Sample RH 5.25, 25.00 °C, 151.0 min) is reported as −0.953%; in data set [3] (desorption, Sample RH 5.06, 24.99 °C, 2238.3 min), −2.007%; in data set [3] (desorption, Sample RH 15.16, 24.99 °C, 2221.4 min) it was −1.980%; in data set [3] (desorption, Sample RH 24.87, 24.99 °C, 2199.9 min) it was −1.946%; in data set [3] (desorption, Sample RH 34.87, 24.99 °C, 2081.7 min), −1.737%; in data set [3] (desorption, Sample RH 45.08, 25.01 °C, 1894.1 min) it was −1.208%. Also, the “Weight chg (%)” value in data set [3] (desorption, Sample RH 55.16, 25.00 °C, 1706.6 min) is on record as −0.421%; in data set [3] (desorption, Sample RH 65.12, 24.98 °C, 1517.0 min), 0.655%; in data set [3] (desorption, Sample RH 75.25, 24.98 °C, 1327.5 min), 1.908%; in data set [3] (desorption, Sample RH 85.49, 24.98 °C, 1139.9 min), 3.348%; in data set [3] (sorption, Sample RH 14.81, 25.00 °C, 197.3 min) it was −0.456%; in data set [3] (sorption, Sample RH 24.80, 24.99 °C, 253.1 min) it was 0.025%. In addition, the “Weight chg (%)” value was found to be 0.569% in data set [3] (sorption, Sample RH 34.93, 24.98 °C, 329.5 min); 1.669% in data set [3] (sorption, Sample RH 44.84, 24.99 °C, 508.3 min); 3.680% in data set [3] (sorption, Sample RH 54.90, 24.98 °C, 603.1 min); 5.782% in data set [3] (sorption, Sample RH 64.85, 24.97 °C, 655.1 min); 8.432% in data set [3] (sorption, Sample RH 74.54, 24.98 °C, 723.7 min); 10.125% in data set [3] (sorption, Sample RH 84.54, 24.98 °C, 764.6 min). The “Weight chg (%)” value in data set [3] (sorption, Sample RH 94.62, 24.95 °C, 952.3 min) worked out at 5.474%; in data set [3] (start, Sample RH 53.89, 24.98 °C, 0.1 min), 0.000%. The weight gain result was “about 6.5%” in data set [3] (between 5% and 95% RH); 10% in data set [3] (under 85% RH). For the same molecule, the weight loss result in data set [3] (between 85% and 95% RH) is listed as “about 5%”. Besides, in data set [3] (from ambient conditions to 5% RH), the initial weight loss result is “approximately 1%”. In addition, the “moisture sorption behaviour in words” value in data set [3] is “very hygroscopic”. Further, the “solid form of the sample after moisture sorption/desorption (XRPD)” value in data set [3] was “matched form A; also recorded: tentatively identified as containing form A”.
In the case of `Cn1c(=O)cc(N2CCC[C@@H](N)C2)n(Cc2ccccc2C#N)c1=O.O=C(O)c1ccccc1` [Compound 1966-27-01], the “Result (solid form by XRPD after stress)” value in data set [4] (stress 79% RH/60° C., 1 hr) is recorded as “form A”.
As for `Cn1c(=O)cc(N2CCC[C@@H](N)C2)n(Cc2ccccc2C#N)c1=O.O=C(O)c1ccccc1` [Compound 1924-83-05], the “Result (solid form by XRPD after stress)” value in data set [4] (stress 40° C., 9 days) is on record as “form A”.
Regarding `Cn1c(=O)cc(N2CCC[C@@H](N)C2)n(Cc2ccccc2C#N)c1=O.O=C(O)c1ccccc1` [Compound 1924-83-06], the “Result (solid form by XRPD after stress)” value in data set [4] (stress 79% RH/40° C., 9 days) is “form A”.
